Test results reported in article PMC9570594, “Development of Novel Pyridine-Thiazole Hybrid Molecules as Potential Anticancer Agents” (Molecules, 2022).

Columns and labels:
SK-MEL-2 (Melanoma) = assay: NCI five-dose SRB assay; assay type: cell-based; settings: Homo sapiens, 48 h
SK-MEL-28 (Melanoma) = assay: NCI five-dose SRB assay; assay type: cell-based; settings: Homo sapiens, 48 h
UO-31 (Renal Cancer) = assay: NCI five-dose SRB assay; assay type: cell-based; settings: Homo sapiens, 48 h
786-0 (Renal Cancer) = assay: NCI five-dose SRB assay; assay type: cell-based; settings: Homo sapiens, 48 h
KM12 (Colon Cancer) = assay: NCI one-dose SRB assay; settings: 10 μM, 48 h
Procedure: (§1) A primary anticancer assay was performed on a panel of approximately sixty human tumor cell lines derived from nine neoplastic diseases, in accordance with the protocol of the Drug Evaluation Branch, National Cancer Institute, Bethesda [31, 32, 33, 34, 35]. Tested compounds were added to the culture at a single concentration (10^−5 M) and the cultures were incubated for 48 h. End point determinations were made with a protein binding dye, Sulphorhodamine B (SRB). […] The percentage growth was evaluated spectrophotometrically versus controls not treated with test agents.

[1] = test system: murine macrophages of J774.2 line; assay: MTT assay of cell viability; settings: Mus musculus, J774.2, 72 h
[2] = test system: A549/ATCC (Non-Small Cell Lung Cancer); assay: NCI five-dose SRB assay; assay type: cell-based; settings: Homo sapiens, 48 h
HL-60(TB) (Leukemia) = assay: NCI five-dose SRB assay; assay type: cell-based; settings: Homo sapiens, 48 h
RPMI-8226 (Leukemia) = assay: NCI five-dose SRB assay; assay type: cell-based; settings: Homo sapiens, 48 h
HS 578T (Breast Cancer) = assay: NCI five-dose SRB assay; assay type: cell-based; settings: Homo sapiens, 48 h
CCRF-CEM (Leukemia) = assay: NCI five-dose SRB assay; assay type: cell-based; settings: Homo sapiens, 48 h
[3] = test system: HOP-62 (Non-Small Cell Lung Cancer); assay: NCI five-dose SRB assay; assay type: cell-based; settings: Homo sapiens, 48 h
[4] = test system: MCF-7 breast cancer cells; assay: Mitochondrial membrane potential, JC-1 (flow cytometry); assay type: cell-based, human; settings: MCF-7, 5 µM, 24 h, control 5.1 ± 0.7%
Procedure: A decrease in the mitochondrial membrane potential (MMP, ΔΨm) is one of the earliest changes observed at apoptosis. […] The MCF-7 cells had depolarized mitochondria, reaching 25.3 ± 1.5% and 24.7 ± 0.4% of the cell population treated with the compound 4 and 7, respectively. In the control, there were only 5.1 ± 0.7% cells with a decreased ΔΨm.
Disruption of the MMP was assessed using the lipophilic cationic probe 5,5,6,6-tetrachloro-1,1,3,3-tetraethylbenzimidazolcarbocyanine iodide (JC-1 MitoScreen kit; BD Biosciences San Diego, CA, USA), as described previously. The entire assay was performed according to the manufacturer’s instructions provided with the purchased kit. […] Briefly, unfixed MCF-7 cells were washed and resuspended in the PBS supplemented with the JC-1 dye. Then, cells were incubated for 15 min at room temperature (RT) in the dark, washed, and resuspended in the PBS for the immediate BD FACSCanto II flow cytometry analysis.

[5] = test system: Leukemia cell lines (MG_MID); assay: NCI five-dose SRB assay; assay type: cell-based; settings: Homo sapiens, 48 h
SF-539 (CNS Cancer) = assay: NCI one-dose SRB assay; settings: 10 μM, 48 h
Procedure: as §1

[6] = test system: NCI-H522 (Non-Small Cell Lung Cancer); assay: NCI five-dose SRB assay; assay type: cell-based; settings: Homo sapiens, 48 h
[7] = test system: MCF-7 breast cancer cells; assay: Soft agar drug sensitivity assay; assay type: cell-based, human; settings: MCF-7, 1 and 5 µM, day 12
Procedure: It was proposed that testing of drugs in a 3-dimensional (3D) format, such as soft agar, is more similar to the in vivo cellular microenvironment and the results of such testing have a good correlation with in vivo conditions.
Five hundred MCF-7 breast cancer cells in 0.5% sterile agar (Bacto-Agar, Difco Laboratories) were layered on a preformed 0.8% sterile agar layer using 24 well plate (CytoONE, STARLAB International GmbH, Hamburg, Germany). The cells in agar were treated with the compound 4 at concentrations of 1 and 5 µM/mL. Doxorubicin was used as a positive control. The 0.5% agar layer included DMEM medium containing 10% FBS, cells, and tested compounds. The 0.8% agar layer included DMEM medium. Colonies with a size of >50 µm were counted under the microscope and photographed after 12 days.

IGROV-1 (Ovarian Cancer) = assay: NCI five-dose SRB assay; assay type: cell-based; settings: Homo sapiens, 48 h
[8] = test system: panel of cancer cell lines; assay: MTT assay, summary over the tumor cell lines; settings: Homo sapiens, 72 h, read-out: IC50 toward tumor cells (depending on tumor cell line)
[9] = test system: NCI-H460 (Non-Small Cell Lung Cancer); assay: NCI one-dose SRB assay; settings: 10 μM, 48 h
Procedure: (§2) Tested compounds were added to the culture at a single concentration (10^−5 M) and the cultures were incubated for 48 h. End point determinations were made with a protein binding dye, Sulphorhodamine B (SRB). […] The percentage growth was evaluated spectrophotometrically versus controls not treated with test agents.

SNB-75 (CNS Cancer) = assay: NCI five-dose SRB assay; assay type: cell-based; settings: Homo sapiens, 48 h
LOX IMVI (Melanoma) = assay: NCI one-dose SRB assay; settings: 10 μM, 48 h
Procedure: Primary anticancer assays (Table 3) on a panel of 60 cancer cell lines at one dose-assay (10^−5 M) were performed according to the NCI protocol, as described elsewhere [31, 32, 33, 34, 35].
as §1

SF-295 (CNS Cancer) = assay: NCI five-dose SRB assay; assay type: cell-based; settings: Homo sapiens, 48 h
[10] = test system: NCI-H226 (Non-Small Cell Lung Cancer); assay: NCI five-dose SRB assay; assay type: cell-based; settings: Homo sapiens, 48 h
KB3-1 cells = assay: Fluorescent microscopy of morphological changes (Hoechst 33342/PI); assay type: cell-based, human; settings: KB3-1, 5 µM, 48 h
Procedure: In addition, we observed multinucleated giant cells. […] The condensed chromatin, a characteristic feature of apoptosis, and dead cells were observed under the action of all studied compounds.
KB3-1 cells were seeded in the 12-well plates (CytoONE, STARLAB International GmbH, Hamburg, Germany) on glass microscopic slides and incubated overnight. Studied compounds were added to cells in the following concentrations: the compounds 3, 4 and cisplatin—5 µM/mL, doxorubicin—1 µM/mL. Cells were incubated for the next 48 h. Chromatin material of living and apoptotic cells was stained with the DNA-specific fluorescent dye Hoechst 33342 (Sigma-Aldrich, Burlington, MA, USA) and the DNA/RNA-specific fluorescent dye Propidium iodide (PI, Sigma, Burlington, MA, USA). Fluorochromes were added to cultured cells at final concentrations 0.2–0.5 μg/mL for Hoechst 33342 and 0.1 μg/mL—for PI. Images were made with a fluorescent Zeiss microscope (Carl Zeiss, Oberkochen, Germany). Magnification ×400. Microphotographs were additionally analyzed using ImagePro7N software.

[11] = test system: MDA-MB-468 (Breast Cancer); assay: NCI five-dose SRB assay; assay type: cell-based; settings: Homo sapiens, 48 h
[12] = test system: Non-Small Cell Lung Cancer cell lines (MG_MID); assay: NCI five-dose SRB assay; assay type: cell-based; settings: Homo sapiens, 48 h
SK-OV-3 (Ovarian Cancer) = assay: NCI five-dose SRB assay; assay type: cell-based; settings: Homo sapiens, 48 h
HT29 (Colon Cancer) = assay: NCI one-dose SRB assay; settings: 10 μM, 48 h
Procedure: as §2

SK-OV-3 (ovarian) = assay: MTT assay of cell viability; settings: Homo sapiens, SK-OV-3, 72 h

CCOC(=O)c1ccc(NC(=O)CSC(CC(=O)c2sc(Nc3ccccn3)nc2C)c2ccccc2F)cc1 (stereo not drawn) [Compound 4, Ethyl 4-[[2-[1-(2-Fluorophenyl)-3-[4-methyl-2-(2-pyridylamino)thiazol-5-yl]-3-oxopropyl]sulfanylacetyl]amino]benzoate]
GI50 (SK-MEL-2 (Melanoma)): 44.9 µM
GI50 (SK-MEL-28 (Melanoma)): 38.7 µM
GI50 (UO-31 (Renal Cancer)): 3.19 µM
GI50 (786-0 (Renal Cancer)): 24.8 µM
Growth % (KM12 (Colon Cancer)): −59.82%
IC50 [1]: > 50 µM
GI50 [2]: 75.7 µM
GI50 (HL-60(TB) (Leukemia)): 21.4 µM
GI50 (RPMI-8226 (Leukemia)): 8.29 µM
GI50 (HS 578T (Breast Cancer)): 14.9 µM
GI50 (CCRF-CEM (Leukemia)): 18.6 µM
GI50 [3]: 37.5 µM
cells with depolarized mitochondria (decreased ΔΨm) [4]: 25.3 ± 1.5%
GI50 [5]: 22.5 µM
Growth % (SF-539 (CNS Cancer)): −27.26%
GI50 [6]: 21.6 µM
size and number of colonies in soft agar [7]: reduces the size and number of colonies
GI50 (IGROV-1 (Ovarian Cancer)): 12.1 µM
IC50 [8]: 0.57 to 7.8 µM
Growth % [9]: −40.69%
GI50 (SNB-75 (CNS Cancer)): 3.58 µM
Growth % (LOX IMVI (Melanoma)): −76.78%
GI50 (SF-295 (CNS Cancer)): 32.2 µM
GI50 [10]: 2.52 µM
morphological changes (KB3-1 cells): changes in nuclear morphology, similar to a mitotic catastrophe
GI50 [11]: 4.24 µM
GI50 [12]: 27.6 µM
GI50 (SK-OV-3 (Ovarian Cancer)): 26 µM
Growth % (HT29 (Colon Cancer)): −28.32%
IC50 (SK-OV-3 (ovarian)): 7.87 ± 0.23 µM
